Experimental findings from US8772302B2, “GPR 119 agonists” (Cadila Healthcare Limited, priority 2009, dated 2014) are described below.

Molecules are shown by their SMILES. Where two headings read alike, the source gives them in different places.

In assay [1] the target is T1, recombinant human GPR 119 receptor (Homo sapiens, UniProt Q8TDV5).
T1 construct: expressed in transfected cells
T1 sequence (Q8TDV5 1-335): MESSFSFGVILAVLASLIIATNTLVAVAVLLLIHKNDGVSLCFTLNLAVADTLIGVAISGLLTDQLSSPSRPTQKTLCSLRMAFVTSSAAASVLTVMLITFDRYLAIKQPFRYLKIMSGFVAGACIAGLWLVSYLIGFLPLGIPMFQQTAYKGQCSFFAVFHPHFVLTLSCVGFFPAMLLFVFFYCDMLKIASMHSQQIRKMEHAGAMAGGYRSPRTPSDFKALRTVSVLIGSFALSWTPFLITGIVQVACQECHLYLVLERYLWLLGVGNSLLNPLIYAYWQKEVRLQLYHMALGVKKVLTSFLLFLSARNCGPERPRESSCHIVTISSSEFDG
The assay is described as follows: cAMP assay in stable cell line expressing recombinant human GPR 119 receptor. Type of assay: cell-based. The conditions noted are these: intracellular cAMP. An excerpt:
cAMP assay: A stable cell line expressing recombinant human GPR 119 receptor was established and used to investigate the efficacy of the compounds of the invention based on the intracellular levels of cyclic AMP (cAMP) using commercially available cAMP kits. Compounds of the invention produced a concentration dependent increase in cAMP level and EC50 values of representative compounds were provided in table 1.
Background: Cyclic AMP is a second messenger, typically raised through Gs and lowered through Gi signalling.

The test system of a further assay is Sprague Dawley rats. The assay is described as follows: Feed intake in Sprague Dawley rats. Type of assay: in vivo, rat. The conditions noted are these: Rattus norvegicus, cumulative feed intake vs vehicle; for inhibition in vivo at 25 mg/kg: ip, intraperitoneal; for inhibition in vivo at 50 mg/kg: oral. An excerpt:
In Vivo Efficacy Studies: Feed Intake in Sprague Dawley Rats:
Sprague Dawley rats of 6-8 week age are used for this experiment they are kept for acclimatization in reversed light/dark cycle for 15 days. Animals will have free access to a standard chow diet and water during acclimatization period. After 15 days reversed light/dark cycle acclimatization animals are trained for fasting induced feed intake for 5 days till they show consistent feed intake. Grouping was done based on the monitored feed intake during the training days. On treatment day each group of animals are dosed with test compound or vehicle by appropriate routes of administration (orally or intraperitoneally). Exactly 30 min. after treatment, measured amount of standard chow diet is provided and recorded as O-min feed offered. Then subsequently 2, 4, 6 and 24 hour after O-min, feed intake is measured and the cumulative feed intakes are calculated. The change in cumulative feed intake as compared to vehicle treated control at each time point is calculated for test compound.

The next assay deals with C57/BL6 mice. The assay is described as follows: Oral glucose tolerance test (OGTT) in C57/BL6 mice. The conditions noted are these: Mus musculus, 2 h, serum glucose AUC, single oral dose, glucose load 3 gm/kg, read-out: % reduction in AUC at 50 mg/kg. Type of assay: in vivo, mouse. As for the experimental part: Oral Glucose Tolerance Tests (OGTT) in C57/BL6 Mice:
C57/BL6 mice of 6-8 week age are used for this experiment. Animals are grouped based on non-fasting serum glucose levels and kept on fasting for overnight (day before OGTT). On the experiment day, […], 30 min post dosing animals are bled for basal glucose level estimation and at the same time glucose load (3 gm/kg) will be administered per orally. Blood is collected at time points corresponding to 20, 40, 60 and 120 min after glucose load administration. Serum is separated for determination of glucose levels and change in area under curve for glucose is calculated and provided in table 4 as % reduction in AUC.

Where [2] appears, read: 2 hour, read-out: % reduction in food in take, 2 hour.
The mark [3] stands for this setting: 4 hour, read-out: % reduction in food in take, 4 hour.
Setting [4] is: 6 hour, read-out: % reduction in food in take, 6 hour.
The mark [5] stands for this setting: 24 hour, read-out: % reduction in food in take, 24 hour.

The term EC50 denotes the concentration that produces a half-maximal response. Take `Cc1c(Oc2ccc([C@H]3CO[S@](=O)OC3)cc2)ncnc1OC1CCN(C(=O)OCC(C)C)CC1` [Example 28, trans-isobutyl 4-((5-methyl-6-(4-(2-oxido-1,3,2-dioxathian-5-yl)phenoxy)pyrimidin-4-yl)oxy)piperidine-1-carboxylate]: the EC50 in assay [1] worked out at 57 nM. Further, the inhibition in vivo at 25 mg/kg with Sprague Dawley rats (setting [2]) worked out at 67%; with Sprague Dawley rats (setting [3]), 59%; in the assay with Sprague Dawley rats (setting [4]), 40%; in the assay on Sprague Dawley rats (setting [5]), 24%. Also, the inhibition in vivo at 50 mg/kg turned out to be 24% in the assay with Sprague Dawley rats (setting [2]); 19% in the assay with Sprague Dawley rats (setting [3]); 9% in the assay on Sprague Dawley rats (setting [4]); 2% in the assay on Sprague Dawley rats (setting [5]); 40% with C57/BL6 mice.
